Converted amounts (≈) assume the structure as drawn. The source made the active and inactive calls. No cut-off for these calls is given here.
Key:
[1] = system: Radical scavenging activity; experiment: Antioxidant activity assessed as DPPH radical scavenging at 0.02 mg/ml measured at 50 min by spectrophotometric analysis relative to control; format: functional
[2] = system: Radical scavenging activity; experiment: Antioxidant activity assessed as DPPH radical scavenging at 0.02 to 0.1 mg/ml measured within 10 min by spectrophotometric analysis; format: functional
[3] = Antioxidant activity assessed as reduction of Mo(6) in phophomolybdenum at 0.1 mg/ml after 150 min by spectrophotometric analysis; format: functional
[4] = Antioxidant activity assessed as potassium ferricyanide reduction at 0.5 mg/ml after 20 min by spectrophotometric analysis; format: functional
[5] = system: Radical scavenging activity; experiment: Antioxidant activity assessed as DPPH radical scavenging at 0.05 mg/ml measured at 50 min by spectrophotometric analysis relative to control; format: functional
[6] = system: Radical scavenging activity; experiment: Antioxidant activity assessed as DPPH radical scavenging at 0.08 mg/ml measured at 50 min by spectrophotometric analysis relative to control; format: functional
[7] = Antioxidant activity assessed as potassium ferricyanide reduction at 0.05 mg/ml after 20 min by spectrophotometric analysis; format: functional
[8] = system: HT-29; experiment: Induction of Homo sapiens (human) HT-29 cell proliferation assessed as [3H]hypoxanthine incorporation at 0.25 to 2 mg/ml incubated for 18 hr prior to [3H]hypoxanthine addition measured after 4 to 6 hr; format: cell-based
[9] = Antioxidant activity assessed as hydroxyl radical scavenging by resonance scattering method; format: functional
[10] = system: HT-29; experiment: Growth inhibition of Homo sapiens (human) HT-29 cells assessed as inhibition of [3H]hypoxanthine incorporation at higher concentration incubated for 18 hr prior to [3H]hypoxanthine addition measured after 4 to 6 hr; format: functional, cell-based
[11] = system: Radical scavenging activity; experiment: Antioxidant activity assessed as DPPH radical scavenging at 0.5 mg/ml measured at 50 min by spectrophotometric analysis relative to control; format: functional
[12] = Antioxidant activity assessed as reduction of Mo(6) in phophomolybdenum at 0.5 mg/ml after 150 min by spectrophotometric analysis; format: functional

SMILES	Activity [1] [%]	Activity [2]	Activity [3]	Activity [4]	Activity [5] [%]	Activity [6] [%]	Activity [7]	Activity [8]	IC50 [9] [µg/mL]	growth inhibition (GI) [10]	Activity [11] [%]	Activity [12]
O=c1ccc2cc(O)c(O)cc2o1 [ESCULETIN]	28.1	Active	Active	Active	59.9	79.7	Active	Toxic	0.091 (≈ 0.511 µM)	Dose-dependent effect	–	–
Cc1cc(C(C)(C)C)c(O)c(C(C)(C)C)c1 [BUTYLATED HYDROXYTOLUENE]	–	–	–	Active	–	–	Active	–	2.883 (≈ 13.1 µM)	–	47.6	Active

From ChEMBL document CHEMBL3045745, “Antioxidant activity and inhibition effect on the growth of human colon carcinoma (HT-29) cells of esculetin from Cortex Fraxini” (Med Chem Res, 2011)
